US11667730B2, “Oxime ester compound and photopolymerization initiator containing the same” (ADEKA CORPORATION, priority 2006, dated 2023)

Experiment: Solubility of oxime ester compound in solvent
Format: physicochemical
Settings: solvent CHN: cyclohexanone (footnote)
With `COCC(C)OC(=O)CCCCCn1c2ccc(/C(C)=N/OC(C)=O)cc2c2cc([N+](=O)[O-])ccc21` (stereo not shown) [compound 12] the “Solubility CHN” value was 31%.
For `CCCCCCCCCCCCCCn1c2ccc(/C(C)=N/OC(C)=O)cc2c2cc([N+](=O)[O-])ccc21` [compound 46], the “Solubility CHN” value was 5.0%.
With `CCCCC(CC)Cn1c2ccc(/C(=N/OC(C)=O)c3ccccc3OCCOC)cc2c2cc([N+](=O)[O-])ccc21` (stereo not shown) [compound 55] the “Solubility CHN” value was 3.2%.
With `CCCCC(CC)Cn1c2ccc(/C(=N/OC(C)=O)c3ccc(F)cc3C)cc2c2cc([N+](=O)[O-])ccc21` (stereo not shown) [compound 58] the “Solubility CHN” value was 7.6%.
For `CCCCC(CC)Cn1c2ccc(/C(=N/OC(C)=O)c3ccc(OCC)cc3OCC)cc2c2cc([N+](=O)[O-])ccc21` (stereo not shown) [compound 56], the “Solubility CHN” value was 23%.
In the case of `CCCCC(CC)Cn1c2ccc(/C(C)=N/OC(C)=O)cc2c2cc([N+](=O)[O-])ccc21` (stereo not shown) [Compound No. 1], the “Solubility CHN” value is reported as 18.9%.
In the case of `CCCCCCC/C(=N\OC(C)=O)c1ccc2c(c1)c1cc([N+](=O)[O-])ccc1n2CC(CC)CCCC` (stereo not shown) [compound 48], the “Solubility CHN” value is reported as 42%.
In the case of `CCCCCCCCCCC/C(=N\OC(C)=O)c1ccc2c(c1)c1cc([N+](=O)[O-])ccc1n2CC(CC)CCCC` (stereo not shown) [compound 50], the “Solubility CHN” value is reported as 45%.
For `CCCCC(CC)Cn1c2ccc(/C(=N/OC(C)=O)c3ccc(OC(C)COC)cc3)cc2c2cc([N+](=O)[O-])ccc21` (stereo not shown) [Compound No. 54], the “Solubility CHN” value was 14%.
In the case of `CCCCC(CC)Cn1c2ccc(/C(=N/OC(C)=O)c3ccc(C(C)(C)C)cc3)cc2c2cc([N+](=O)[O-])ccc21` (stereo not shown) [compound 53], the “Solubility CHN” value is reported as 24%.
For `CCCCCCCCn1c2ccc(/C(C)=N/OC(C)=O)cc2c2cc([N+](=O)[O-])ccc21` [compound 2], the “Solubility CHN” value was 9.2%.
With `C=CC(=O)OCCn1c2ccc(/C(CCCCCCCCCCC)=N/OC(C)=O)cc2c2cc([N+](=O)[O-])ccc21` [compound 20] the “Solubility CHN” value was 3.7%.
In the case of `CCCCCCCCCCCCCCCCn1c2ccc(/C(C)=N/OC(C)=O)cc2c2cc([N+](=O)[O-])ccc21` [compound 47], the “Solubility CHN” value is reported as 5.3%.
For `COCC(C)OC(=O)Cn1c2ccc(/C(C)=N/OC(C)=O)cc2c2cc([N+](=O)[O-])ccc21` (stereo not shown) [compound 10], the “Solubility CHN” value was 0.54%.
In the case of `CCn1c2ccc(/C(C)=N/OC(C)=O)cc2c2cc([N+](=O)[O-])ccc21` [compound 3], the “Solubility CHN” value is reported as 0.80%.
In the case of `CCCCC(CC)Cn1c2ccc(/C(Cc3ccccc3)=N/OC(C)=O)cc2c2cc([N+](=O)[O-])ccc21` (stereo not shown) [compound 51], the “Solubility CHN” value is reported as 13%.
For `CCOCCn1c2ccc(/C(C)=N/OC(C)=O)cc2c2cc([N+](=O)[O-])ccc21` [compound 7], the “Solubility CHN” value was 2.4%.
With `CCCCCCCCCCCCn1c2ccc(/C(C)=N/OC(C)=O)cc2c2cc([N+](=O)[O-])ccc21` [compound 45] the “Solubility CHN” value was 7.2%.
For `CCn1c2ccc(/C(=N/OC(C)=O)c3ccc(OC(C)C)cc3OC(C)C)cc2c2cc([N+](=O)[O-])ccc21` [compound 57], the “Solubility CHN” value was 12%.
For `CCn1c2ccc(/C(=N/OC(C)=O)c3ccc(OC(C)COC)cc3C)cc2c2cc([N+](=O)[O-])ccc21` (stereo not shown) [compound 33], the “Solubility CHN” value was 27%.

Experiment: Solubility of oxime ester compound in solvent
Format: physicochemical
Settings: solvent PGM-Ac: Propylene glycol-1-monomethyl ether-2-acetate
Procedure: When used as a photopolymerization initiator, they dissolve in propylene glycol-1-monomethyl ether-2-acetate or cyclohexanone as a solvent to a concentration of 1% by mass or higher, to satisfy the requirement as a photopolymerization initiator. The solubility measurement is preferably made at 20° to 30° C.
With `COCC(C)OC(=O)CCCCCn1c2ccc(/C(C)=N/OC(C)=O)cc2c2cc([N+](=O)[O-])ccc21` (stereo not shown) [compound 12] the “Solubility PGM-Ac” value was 25%.
With `CCCCCCCCCCCCCCn1c2ccc(/C(C)=N/OC(C)=O)cc2c2cc([N+](=O)[O-])ccc21` [compound 46] the “Solubility PGM-Ac” value was 0.5%.
In the case of `CCCCC(CC)Cn1c2ccc(/C(=N/OC(C)=O)c3ccccc3OCCOC)cc2c2cc([N+](=O)[O-])ccc21` (stereo not shown) [compound 55], the “Solubility PGM-Ac” value is reported as 1.2%.
For `CCCCC(CC)Cn1c2ccc(/C(=N/OC(C)=O)c3ccc(F)cc3C)cc2c2cc([N+](=O)[O-])ccc21` (stereo not shown) [compound 58], the “Solubility PGM-Ac” value was 1.2%.
For `CCCCC(CC)Cn1c2ccc(/C(=N/OC(C)=O)c3ccc(OCC)cc3OCC)cc2c2cc([N+](=O)[O-])ccc21` (stereo not shown) [compound 56], the “Solubility PGM-Ac” value was 3.6%.
For `CCCCC(CC)Cn1c2ccc(/C(C)=N/OC(C)=O)cc2c2cc([N+](=O)[O-])ccc21` (stereo not shown) [Compound No. 1], the “Solubility PGM-Ac” value was 4.1%.
With `CCCCCCC/C(=N\OC(C)=O)c1ccc2c(c1)c1cc([N+](=O)[O-])ccc1n2CC(CC)CCCC` (stereo not shown) [compound 48] the “Solubility PGM-Ac” value was 5.0%.
For `CCCCCCCCCCC/C(=N\OC(C)=O)c1ccc2c(c1)c1cc([N+](=O)[O-])ccc1n2CC(CC)CCCC` (stereo not shown) [compound 50], the “Solubility PGM-Ac” value was 6.0%.
In the case of `CCCCC(CC)Cn1c2ccc(/C(=N/OC(C)=O)c3ccc(OC(C)COC)cc3)cc2c2cc([N+](=O)[O-])ccc21` (stereo not shown) [Compound No. 54], the “Solubility PGM-Ac” value is reported as 20%.
For `CCCCC(CC)Cn1c2ccc(/C(=N/OC(C)=O)c3ccc(C(C)(C)C)cc3)cc2c2cc([N+](=O)[O-])ccc21` (stereo not shown) [compound 53], the “Solubility PGM-Ac” value was 5.0%.
With `CCCCCCCCn1c2ccc(/C(C)=N/OC(C)=O)cc2c2cc([N+](=O)[O-])ccc21` [compound 2] the “Solubility PGM-Ac” value was 1.4%.
With `C=CC(=O)OCCn1c2ccc(/C(CCCCCCCCCCC)=N/OC(C)=O)cc2c2cc([N+](=O)[O-])ccc21` [compound 20] the “Solubility PGM-Ac” value was 0.16%.
In the case of `CCCCCCCCCCCCCCCCn1c2ccc(/C(C)=N/OC(C)=O)cc2c2cc([N+](=O)[O-])ccc21` [compound 47], the “Solubility PGM-Ac” value is reported as 0.3%.
With `COCC(C)OC(=O)Cn1c2ccc(/C(C)=N/OC(C)=O)cc2c2cc([N+](=O)[O-])ccc21` (stereo not shown) [compound 10] the “Solubility PGM-Ac” value was 0.091%.
In the case of `CCn1c2ccc(/C(C)=N/OC(C)=O)cc2c2cc([N+](=O)[O-])ccc21` [compound 3], the “Solubility PGM-Ac” value is reported as 0.12%.
For `CCCCC(CC)Cn1c2ccc(/C(Cc3ccccc3)=N/OC(C)=O)cc2c2cc([N+](=O)[O-])ccc21` (stereo not shown) [compound 51], the “Solubility PGM-Ac” value was 1.5%.
With `CCOCCn1c2ccc(/C(C)=N/OC(C)=O)cc2c2cc([N+](=O)[O-])ccc21` [compound 7] the “Solubility PGM-Ac” value was 0.38%.
With `CCCCCCCCCCCCn1c2ccc(/C(C)=N/OC(C)=O)cc2c2cc([N+](=O)[O-])ccc21` [compound 45] the “Solubility PGM-Ac” value was 0.4%.
In the case of `CCn1c2ccc(/C(=N/OC(C)=O)c3ccc(OC(C)C)cc3OC(C)C)cc2c2cc([N+](=O)[O-])ccc21` [compound 57], the “Solubility PGM-Ac” value is reported as 2.4%.
For `CCn1c2ccc(/C(=N/OC(C)=O)c3ccc(OC(C)COC)cc3C)cc2c2cc([N+](=O)[O-])ccc21` (stereo not shown) [compound 33], the “Solubility PGM-Ac” value was 5.1%.
